Assay results taken from ChEMBL document CHEMBL4402510, “Caprazamycins: Promising lead structures acting on a novel antibacterial target MraY” (Eur J Med Chem, 2019).
In brackets after ≈: the same amount, converted by molar mass.

Legend:
Mycolicibacterium phlei = assay: Antibacterial activity against Mycobacterium phlei; assay type: functional
[1] = tested on: Mycobacterium tuberculosis; assay: Antibacterial activity against Mycobacterium tuberculosis H37Rv; assay type: functional
[2] = Antibacterial activity against Mycobacterium avium subsp. avium ATCC 25291; assay type: functional
[3] = tested on: Mycobacterium avium subsp. paratuberculosis; assay: Antibacterial activity against Mycobacterium avium subsp. paratuberculosis ATCC 43015; assay type: functional
Staphylococcus aureus [4] = assay: Antibacterial activity against methicillin resistant Staphylococcus aureus No. 5; assay type: functional
[5] = tested on: Mycobacterium tuberculosis; assay: Antibacterial activity against Mycobacterium tuberculosis Kurono; assay type: functional
[6] = tested on: Mycobacterium tuberculosis; assay: Antibacterial activity against Mycobacterium tuberculosis JCM 6384; assay type: functional
[7] = tested on: Mycolicibacterium smegmatis; assay: Antibacterial activity against Mycobacterium smegmatis ATCC 607; assay type: functional
Mycolicibacterium vaccae = assay: Antibacterial activity against Mycobacterium vaccae ATCC 15483; assay type: functional
Staphylococcus aureus [8] = assay: Antibacterial activity against Staphylococcus aureus FDA 209P; assay type: functional
Staphylococcus aureus [9] = assay: Antibacterial activity against methicillin resistant Staphylococcus aureus MS16526; assay type: functional
Bacillus subtilis = assay: Antibacterial activity against Bacillus subtilis PCI 219; assay type: functional
Escherichia coli = assay: Antibacterial activity against Escherichia coli K-12; assay type: functional
Streptococcus pneumoniae = assay: Antibacterial activity against Streptococcus pneumoniae PCI 602; assay type: functional
[10] = biological target: T1, Phospho-N-acetylmuramoyl-pentapeptide-transferase (Bacillus subtilis (strain 168), UniProt Q03521); assay: Inhibition of MraY in Bacillus subtilis
T1 sequence (Q03521 whole entry): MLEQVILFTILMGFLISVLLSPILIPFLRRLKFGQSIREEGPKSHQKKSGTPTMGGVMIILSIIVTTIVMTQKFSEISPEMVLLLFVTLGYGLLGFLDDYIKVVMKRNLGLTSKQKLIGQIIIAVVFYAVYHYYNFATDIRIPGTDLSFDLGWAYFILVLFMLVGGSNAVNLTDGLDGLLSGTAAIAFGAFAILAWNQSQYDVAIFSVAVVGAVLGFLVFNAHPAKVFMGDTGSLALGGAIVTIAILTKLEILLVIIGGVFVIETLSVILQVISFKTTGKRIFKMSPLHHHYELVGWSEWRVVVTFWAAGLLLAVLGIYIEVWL

SMILES | MIC (Mycolicibacterium phlei) [µg/mL] | MIC [1] [µg/mL] | MIC [2] [µg/mL] | MIC [3] [µg/mL] | MIC (Staphylococcus aureus [4]) [µg/mL] | MIC [5] [µg/mL] | MIC [6] [µg/mL] | MIC [7] [µg/mL] | MIC (Mycolicibacterium vaccae) [µg/mL] | MIC (Staphylococcus aureus [8]) [µg/mL] | MIC (Staphylococcus aureus [9]) [µg/mL] | MIC (Bacillus subtilis) [µg/mL] | MIC (Escherichia coli) [µg/mL] | MIC (Streptococcus pneumoniae) [µg/mL] | IC50 [10] [µM]
CCCCCCCCNC(=O)C1=CCN(C)[C@@H]([C@H](O[C@@H]2O[C@H](CN)[C@@H](O)[C@H]2O)[C@H]2O[C@@H](n3ccc(=O)[nH]c3=O)[C@H](O)[C@@H]2O)C(=O)N1C | 100 (≈ 150 µM) | 3.3 (≈ 4.93 µM) | 3.13 (≈ 4.68 µM) | 25 (≈ 37.4 µM) | 3.13 (≈ 4.68 µM) | 0.78 (≈ 1.17 µM) | 12.5 (≈ 18.7 µM) | 6.25 (≈ 9.35 µM) | 100 (≈ 150 µM) | 100 (≈ 150 µM) | > 100 | > 100 | > 100 | > 100 | 
NC[C@H]1O[C@@H](O[C@@H](c2cn(CCCCCOc3ccc(C(=O)c4ccccc4)cc3)nn2)[C@H]2O[C@@H](n3ccc(=O)[nH]c3=O)[C@H](O)[C@@H]2O)[C@H](O)[C@@H]1O |  |  |  |  |  |  |  |  |  |  |  |  |  |  | 100
CCCCCCCCCNC(=O)C1=CCN(C)[C@@H]([C@H](O[C@@H]2O[C@H](CN)[C@@H](O)[C@H]2O)[C@H]2O[C@@H](n3ccc(=O)[nH]c3=O)[C@H](O)[C@@H]2O)C(=O)N1C | 3.13 (≈ 4.58 µM) | 1.56 (≈ 2.28 µM) | 1.56 (≈ 2.28 µM) | 0.2 (≈ 0.293 µM) | 50 (≈ 73.2 µM) | 0.78 (≈ 1.14 µM) | 0.2 (≈ 0.293 µM) | 0.78 (≈ 1.14 µM) | 12.5 (≈ 18.3 µM) | 6.25 (≈ 9.15 µM) | 50 (≈ 73.2 µM) | 1.56 (≈ 2.28 µM) | > 100 | > 100 | 
CCCCc1ccc(NC(=O)C2=CCN[C@@H]([C@H](O[C@@H]3O[C@H](CN)[C@@H](O)[C@H]3O)[C@H]3O[C@@H](n4ccc(=O)[nH]c4=O)[C@H](O)[C@@H]3O)C(=O)N2C)cc1 | 12.5 (≈ 18.5 µM) | 1.56 (≈ 2.31 µM) | 1.56 (≈ 2.31 µM) | 0.39 (≈ 0.578 µM) | 100 (≈ 148 µM) | 1.56 (≈ 2.31 µM) | 0.2 (≈ 0.296 µM) | 6.25 (≈ 9.26 µM) | 50 (≈ 74.1 µM) | 25 (≈ 37.1 µM) | 100 (≈ 148 µM) | 3.13 (≈ 4.64 µM) | > 100 | 50 (≈ 74.1 µM) | 
CCCCCCCCCCCCCCCNC(=O)C1=CCN(C)[C@@H]([C@H](O[C@@H]2O[C@H](CN)[C@@H](O)[C@H]2O)[C@H]2O[C@@H](n3ccc(=O)[nH]c3=O)[C@H](O)[C@@H]2O)C(=O)N1C | 6.25 (≈ 8.15 µM) | 1.56 (≈ 2.03 µM) | 3.13 (≈ 4.08 µM) | 0.78 (≈ 1.02 µM) | > 100 | 1.56 (≈ 2.03 µM) | 1.56 (≈ 2.03 µM) | 1.56 (≈ 2.03 µM) | 6.25 (≈ 8.15 µM) | < 0.2 | 50 (≈ 65.2 µM) | 1.56 (≈ 2.03 µM) | 1.56 (≈ 2.03 µM) | 3.13 (≈ 4.08 µM) | 
CCCCCCCCCCCCCCNC(=O)C1=CCN(C)[C@@H]([C@H](O[C@@H]2O[C@H](CN)[C@@H](O)[C@H]2O)[C@H]2O[C@@H](n3ccc(=O)[nH]c3=O)[C@H](O)[C@@H]2O)C(=O)N1C | 0.78 (≈ 1.04 µM) | 1.56 (≈ 2.07 µM) | 3.13 (≈ 4.16 µM) | 0.39 (≈ 0.518 µM) | 6.25 (≈ 8.3 µM) | 1.56 (≈ 2.07 µM) | 0.39 (≈ 0.518 µM) | 1.56 (≈ 2.07 µM) | 1.56 (≈ 2.07 µM) | 3.13 (≈ 4.16 µM) | 3.13 (≈ 4.16 µM) | 0.2 (≈ 0.266 µM) | > 100 | 12.5 (≈ 16.6 µM) | 
CCCCCNC(=O)C1=CCN(C)[C@@H]([C@H](O[C@@H]2O[C@H](CN)[C@@H](O)[C@H]2O)[C@H]2O[C@@H](n3ccc(=O)[nH]c3=O)[C@H](O)[C@@H]2O)C(=O)N1C | > 100 | 12.5 (≈ 19.9 µM) | 100 (≈ 160 µM) | 100 (≈ 160 µM) | > 100 | 6.25 (≈ 9.97 µM) | 100 (≈ 160 µM) | 100 (≈ 160 µM) | > 100 | 25 (≈ 39.9 µM) | > 100 | > 100 | > 100 | > 100 | 
NC[C@H]1O[C@@H](O[C@@H](c2cn(CCc3ccc(-c4ccccc4)cc3)nn2)[C@H]2O[C@@H](n3ccc(=O)[nH]c3=O)[C@H](O)[C@@H]2O)[C@H](O)[C@@H]1O |  |  |  |  |  |  |  |  |  |  |  |  |  |  | 400
NC[C@H]1O[C@@H](O[C@@H](c2cn(C3CCCCCC3)nn2)[C@H]2O[C@@H](n3ccc(=O)[nH]c3=O)[C@H](O)[C@@H]2O)[C@H](O)[C@@H]1O |  |  |  |  |  |  |  |  |  |  |  |  |  |  | > 1000
NC[C@H]1O[C@@H](O[C@@H](c2cn(CCCn3ccnc3)nn2)[C@H]2O[C@@H](n3ccc(=O)[nH]c3=O)[C@H](O)[C@@H]2O)[C@H](O)[C@@H]1O |  |  |  |  |  |  |  |  |  |  |  |  |  |  | > 1000
NC[C@H]1O[C@@H](O[C@@H](c2cn(CCCCCN3CCCCC3)nn2)[C@H]2O[C@@H](n3ccc(=O)[nH]c3=O)[C@H](O)[C@@H]2O)[C@H](O)[C@@H]1O |  |  |  |  |  |  |  |  |  |  |  |  |  |  | 150
